# Reference: patent publication US20100311714A1, “1H-IMIDAZO[4,5-c]QUINOLINONE COMPOUNDS” (priority 2009, published 2010)
# Columns and labels:
# [1] = target: T1, mTOR (Homo sapiens, UniProt P42345); test: Biochemical assay for m-TOR by TR-FRET; details: read-out: EPK_mTOR/IC50
# T1 construct: purchased Invitrogen Corporation (Carlsbad/Calif., USA) PV4753
# Procedure: Biochemical Assay for m-TOR by TR-FRET.
# Assay components are purchased from Invitrogen Corporation (Carlsbad/Calif., USA): GFP-4EBP1 (Cat. No. PV4759), Tb3+-α-p4EBP1 [pThr46] Antibody (Cat. No. PV4757), proprietary TR-FRET dilution buffer (Cat. No. PV3574), mTOR protein (Cat. No. PV4753).
# 50 nL of compound dilutions (final concentration of 10, 3.0, 1.0, 0.3, 0.1, 0.03, 0.01 and 0.003 μM) are dispensed onto black 384-well low volume non-binding polystyrene (Cat. No. NBS#3676, Corning, Lowell/Mass., USA). Then 5 μL of ATP (8 μM final concentration) and GFP-4EBP1 (400 nM final concentration) with 5 μL mTOR proteins (0.5 nM final concentration) are incubated at rt. The standard reaction buffer for the TR-FRET mTOR assay contained 50 mM HEPES pH 7.5, 10 mM MnCl2, 50 mM NaCl, 1 mM EGTA, 1 mM DTT. Reactions were stopped with 10 μL of a mixture of EDTA containing the Tb3+-α-p4EBP1[pT46] detection Ab (0.5 nM) in TR-FRET dilution buffer (proprietary to IVG). Plates are read 15 mins later in a Synergy2 reader using an integration time of 0.2 seconds and a delay of 0.1 seconds. Control for the 100% inhibition of the kinase reaction is performed by replacing the mTOR kinase by the standard reaction buffer. The control for the 0% inhibition is given by the solvent vehicle of the compounds (90% DMSO in H2O). A standard compound is used as a reference compound and included in all assay plates in the form of 16 dilution points in duplicate.
# [2] = target: T2, PI3K beta (Homo sapiens, UniProt P42338); test: PI3K beta kinase assay (Kinase-Glo luminescence); type: biochemical; details: read-out: EPK_PI3Kbeta/IC50
# T2 construct: for the full-length p110-b subunit are generated and fused by overlapping PCR; His tag (C); made in house; host or cells: baculovirus BV949; Tn5 (Trichoplusia ni) or TiniPro insect cells
# Procedure: (§1) In a more preferred assay, the kinase reaction is performed in a final volume of 10 μL per well of a low volume non binding CORNING, 384 well black plate (Cat. No. #3676). The final concentrations of ATP and phosphatidyl inositol (PI) in the assay are 1 μM and 10 μg/mL respectively. The reaction is started by the addition of ATP.
# (§2) The components of the assay are added per well as follows:
# (§3) 50 nL test compounds in 90% DMSO per well, in columns 1-20, 8 concentrations (⅓ and 1/3.33 serial dilution step) in single. • Low control: […] of 90% DMSO in half the wells of columns 23-24 (0.45% in final). • High control: 50 nL of reference compound (e.g. compound of Example 7 in WO 2006/122806) in the other half of columns 23-24 (2.5 μM in final). • Standard: 50 nL of reference compound as just mentioned diluted as the test compounds in columns 21-22 • 20 mL ‘buffer’ are prepared per assay: • 200 μL of 1M TRIS HCl pH7.5 (10 mM in final) • 60 μL of 1M MgCl2 (3 mM in final) • 500 μL of 2M NaCl (50 mM in final) • 100 μL of 10% CHAPS (0.05% in final) • 200 μL of 100 mM DTT (1 mM in final) • 18.94 mL of nanopure water • 10 mL ‘PI’ are prepared per assay: • 200 μL of 1 mg/ml L-alpha-Phosphatidylinositol (Liver Bovine, Avanti Polar Lipids Cat. No. 840042C MW=909.12) prepared in 3% OctylGlucoside (10 μg/ml in final) • 9.8 mL of ‘buffer’ • 10 mL ‘ATP’ are prepared per assay: • 6.7 μL of 3 mM stock of ATP giving a final concentration of 1 μM per well • 10 mL of ‘buffer’ • 2.5 mL of each PI3K construct are prepared per assay in ‘PI’ with the following final concentration: • 10 nM PI3K alfa EMV B1075 • 25 nM beta EMV BV949 • 10 nM delta EMV BV1060 • 150 nM gamma EMV BV950 • 5 μL of ‘PI/PI3K’ are added per well. • 5 μl ‘ATP’ are added per well to start the reaction. • The plates are then incubated at room temperature for 60 minutes (alfa, beta, delta) or 120 minutes (gamma). • The reaction is terminated by the addition of 10 μL Kinase-Glo (Promega Cat. No. #6714). • The assay plates are read after 10 minutes in Synergy 2 reader (BioTek, Vermont USA) with an integration time of 100 milliseconds and sensitivity set to 191. • Output: The High control is around 60′000 counts and the Low control is 30′000 or lower • This luminescence assay gives a useful Z′ ratio between 0.4 and 0.7
# PI3Kβ BV-949 p85(iSH2)-Gly linker-r 110b(full-length)-C-term His Tag
# PI3K beta is purified in two chromatographic steps: immobilized metal affinity chromatography (IMAC) on a Ni Sepharose resin (GE Healthcare) and gel filtration (GFC) utilizing a Superdex 200 26/60 column (GE Healthcare). All buffers are chilled to 4° C. and lysis is performed chilled on ice. Column fractionation is performed rapidly at room temperature.
# (§4) IC50 is determined by a four parameter curve fitting routine that comes along with “excel fit”. A 4 Parameter logistic equation is used to calculate IC50 values (IDBS XLfit) of the percentage inhibition of each compound at 8 concentrations (usually 10, 3.0, 1.0, 0.3, 0.1, 0.030, 0.010 and 0.003 μM). Alternatively, IC50 values are calculated using idbsXLfit model 204, which is a 4 parameter logistic model.
# [3] = target: T3, PI3K alfa (Homo sapiens, UniProt P42336); test: PI3K alpha kinase assay (Kinase-Glo luminescence); type: biochemical; details: read-out: EPK_PI3Kalfa/IC50
# T3 construct: His tag (C); made in house; host or cells: baculovirus BV1075; Tn5 (Trichoplusia ni) or TiniPro insect cells
# Procedure: as §1, §2, §3
# Two different constructs, BV 1052 and BV 1075, are used to generate the PI3 Kinase α proteins for compound screening.
# PI3K alpha is purified in three chromatographic steps: immobilized metal affinity chromatography on a Ni Sepharose resin (GE Healthcare, belonging to General Electric Company, Fairfield, Conn., USA), gel filtration utilizing a Superdex 200 26/60 column (GE Healthcare), and finally a cation exchange step on a SP-XL column (GE Healthcare). All buffers are chilled to 4° C. and lysis is performed chilled on ice. Column fractionation is performed rapidly at room temperature.
# as §4
# [4] = target: T4, PI3K delta (Homo sapiens, UniProt O00329); test: PI3K delta kinase assay (Kinase-Glo luminescence); type: biochemical; details: read-out: EPK_PI3Kdelta/IC50
# T4 construct: for the full-length p110-d subunit are generated and fused by overlapping PCR; His tag (C); made in house; host or cells: baculovirus BV1060; Tn5 (Trichoplusia ni) or TiniPro insect cells
# Procedure: as §1, §2, §3
# PI3Kδ BV-1060 p85(iSH2)-Gly Linker-p110d(Full-Length)-C-Term His Tag
# PI3K delta is purified in three chromatographic steps: immobilized metal affinity chromatography on a Ni Sepharose resin (GE Healthcare), gel filtration utilizing a Superdex 200 26/60 column (GE Healthcare), and finally a anion exchange step on a Q-HP column (GE Healthcare). All buffers are chilled to 4° C. and lysis is performed chilled on ice. Column fractionation is performed rapidly at room temperature. Typically frozen insect cells are lysed in a hypertonic lysis buffer and applied to a prepared IMAC column. The resin is washed with 3-5 column volumes of lysis buffer, followed by 3-5 column volumes wash buffer containing 45 mM imidazole, and the target protein is then eluted with a buffer containing 250 mM imidazole. Fractions are analyzed by Coomassie stained SDS-PAGE gels, and fractions containing the target protein are pooled and applied to a prepared GFC column. Fractions from the GFC column are analyzed by Coomassie stained SDS-PAGE gels, and fractions containing the target protein are pooled. The pool from the GFC column is diluted into a low salt buffer and applied to a prepared Q-HP column. The column is washed with low salt buffer until a stable A280 baseline absorbance is achieved, and eluted using a 20 column volume gradient from 0 mM NaCl to 500 mM NaCl. Again, fractions from the Q-HP column are analyzed by Coomassie stained SDS-PAGE gels, and fractions containing the target protein are pooled. The final pool is dialyzed into a storage buffer containing 50% glycerol and stored at −20° C. The final pool is assayed for activity in the phosphoinostitol kinase assay. […]
# T4 sequence (O00329 with tags, fused parts or gaps limits assumed): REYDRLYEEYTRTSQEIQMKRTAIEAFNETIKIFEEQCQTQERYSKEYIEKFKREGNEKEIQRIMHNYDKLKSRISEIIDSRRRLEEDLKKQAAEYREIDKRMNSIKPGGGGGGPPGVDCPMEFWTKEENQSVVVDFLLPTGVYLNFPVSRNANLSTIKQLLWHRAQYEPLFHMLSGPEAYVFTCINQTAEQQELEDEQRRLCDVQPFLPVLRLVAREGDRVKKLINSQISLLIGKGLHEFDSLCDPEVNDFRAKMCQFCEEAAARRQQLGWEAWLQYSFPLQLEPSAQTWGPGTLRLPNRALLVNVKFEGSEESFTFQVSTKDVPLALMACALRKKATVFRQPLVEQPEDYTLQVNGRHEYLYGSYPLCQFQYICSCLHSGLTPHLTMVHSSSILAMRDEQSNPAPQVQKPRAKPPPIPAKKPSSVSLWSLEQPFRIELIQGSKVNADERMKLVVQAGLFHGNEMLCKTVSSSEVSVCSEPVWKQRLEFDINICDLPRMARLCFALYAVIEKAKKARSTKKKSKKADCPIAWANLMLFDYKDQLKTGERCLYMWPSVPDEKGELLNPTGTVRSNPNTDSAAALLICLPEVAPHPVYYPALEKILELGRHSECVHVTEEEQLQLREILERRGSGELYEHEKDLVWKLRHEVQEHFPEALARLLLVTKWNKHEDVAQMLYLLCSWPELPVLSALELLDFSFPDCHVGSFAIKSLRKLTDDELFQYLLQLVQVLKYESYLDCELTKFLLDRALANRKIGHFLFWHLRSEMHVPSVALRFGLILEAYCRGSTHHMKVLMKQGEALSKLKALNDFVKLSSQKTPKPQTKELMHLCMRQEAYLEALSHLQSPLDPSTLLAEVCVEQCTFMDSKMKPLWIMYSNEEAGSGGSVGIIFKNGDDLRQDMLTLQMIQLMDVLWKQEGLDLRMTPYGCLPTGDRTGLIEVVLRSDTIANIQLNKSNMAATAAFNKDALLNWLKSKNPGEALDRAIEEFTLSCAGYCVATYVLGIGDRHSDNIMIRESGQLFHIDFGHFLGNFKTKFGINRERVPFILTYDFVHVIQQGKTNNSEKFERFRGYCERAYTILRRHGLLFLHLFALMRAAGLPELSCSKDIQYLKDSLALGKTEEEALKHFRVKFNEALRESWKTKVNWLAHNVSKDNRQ
# T1 sequence (P42345 1360-2549 limits assumed): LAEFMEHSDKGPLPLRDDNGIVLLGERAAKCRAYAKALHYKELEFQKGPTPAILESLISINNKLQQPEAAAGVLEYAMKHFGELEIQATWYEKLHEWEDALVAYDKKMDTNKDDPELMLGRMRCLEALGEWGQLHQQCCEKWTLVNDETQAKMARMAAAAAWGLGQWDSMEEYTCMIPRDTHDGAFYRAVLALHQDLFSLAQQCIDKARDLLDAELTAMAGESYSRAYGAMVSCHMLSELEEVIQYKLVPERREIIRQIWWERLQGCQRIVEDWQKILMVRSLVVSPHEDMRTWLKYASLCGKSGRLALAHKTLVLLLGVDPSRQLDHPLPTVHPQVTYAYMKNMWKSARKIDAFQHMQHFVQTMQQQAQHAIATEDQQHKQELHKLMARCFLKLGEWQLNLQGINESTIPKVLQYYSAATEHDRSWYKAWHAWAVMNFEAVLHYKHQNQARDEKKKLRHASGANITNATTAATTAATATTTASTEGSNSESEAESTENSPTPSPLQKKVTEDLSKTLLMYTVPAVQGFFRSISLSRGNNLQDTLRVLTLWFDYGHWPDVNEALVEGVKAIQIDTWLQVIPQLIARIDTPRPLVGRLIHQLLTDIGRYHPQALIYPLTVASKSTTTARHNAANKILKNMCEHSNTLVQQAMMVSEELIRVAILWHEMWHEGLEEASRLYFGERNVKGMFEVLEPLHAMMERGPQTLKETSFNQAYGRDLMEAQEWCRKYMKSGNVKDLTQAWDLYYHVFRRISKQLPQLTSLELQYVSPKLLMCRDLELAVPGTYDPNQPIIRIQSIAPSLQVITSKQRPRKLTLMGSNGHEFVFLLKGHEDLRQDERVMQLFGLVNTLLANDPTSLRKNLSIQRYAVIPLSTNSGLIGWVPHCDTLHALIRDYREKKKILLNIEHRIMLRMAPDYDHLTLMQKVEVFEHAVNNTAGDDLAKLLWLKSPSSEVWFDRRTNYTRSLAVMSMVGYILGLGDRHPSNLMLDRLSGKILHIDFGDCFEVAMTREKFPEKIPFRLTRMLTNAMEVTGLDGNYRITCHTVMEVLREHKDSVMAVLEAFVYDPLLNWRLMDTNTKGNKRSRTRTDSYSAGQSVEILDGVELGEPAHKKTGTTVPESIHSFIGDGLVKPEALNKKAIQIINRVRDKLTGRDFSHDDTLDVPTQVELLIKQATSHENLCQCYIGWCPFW
# T3 sequence (P42336 with tags, fused parts or gaps limits assumed): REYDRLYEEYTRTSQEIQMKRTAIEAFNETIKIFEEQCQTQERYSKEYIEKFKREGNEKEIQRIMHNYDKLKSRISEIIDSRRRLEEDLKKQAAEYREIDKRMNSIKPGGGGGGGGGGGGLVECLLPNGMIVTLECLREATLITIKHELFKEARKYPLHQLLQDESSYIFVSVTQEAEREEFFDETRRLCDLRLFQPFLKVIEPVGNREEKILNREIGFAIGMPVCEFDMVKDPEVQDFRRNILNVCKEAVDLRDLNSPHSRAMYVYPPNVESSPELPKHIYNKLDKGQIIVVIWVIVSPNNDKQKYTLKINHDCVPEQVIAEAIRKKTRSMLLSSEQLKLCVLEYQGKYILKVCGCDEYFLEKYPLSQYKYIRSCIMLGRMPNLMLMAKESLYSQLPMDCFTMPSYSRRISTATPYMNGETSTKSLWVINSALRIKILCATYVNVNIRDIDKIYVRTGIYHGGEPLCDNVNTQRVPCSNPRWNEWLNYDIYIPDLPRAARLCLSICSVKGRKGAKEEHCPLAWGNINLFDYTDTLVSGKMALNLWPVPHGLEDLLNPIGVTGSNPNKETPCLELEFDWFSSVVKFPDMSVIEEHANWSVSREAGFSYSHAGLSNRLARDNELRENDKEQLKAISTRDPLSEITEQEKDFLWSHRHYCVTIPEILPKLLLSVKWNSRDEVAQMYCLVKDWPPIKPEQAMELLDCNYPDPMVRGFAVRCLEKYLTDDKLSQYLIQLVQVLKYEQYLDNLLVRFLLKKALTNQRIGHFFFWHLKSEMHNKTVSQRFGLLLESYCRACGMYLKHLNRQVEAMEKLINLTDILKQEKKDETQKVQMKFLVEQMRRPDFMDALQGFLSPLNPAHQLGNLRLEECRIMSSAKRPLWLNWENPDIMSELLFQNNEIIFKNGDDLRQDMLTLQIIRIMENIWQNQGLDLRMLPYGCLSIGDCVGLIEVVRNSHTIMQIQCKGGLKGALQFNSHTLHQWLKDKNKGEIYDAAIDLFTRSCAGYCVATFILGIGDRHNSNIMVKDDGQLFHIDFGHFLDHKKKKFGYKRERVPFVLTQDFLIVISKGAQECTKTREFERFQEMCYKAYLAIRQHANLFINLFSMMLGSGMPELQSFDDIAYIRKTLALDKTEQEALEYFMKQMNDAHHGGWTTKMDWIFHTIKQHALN
# T2 sequence (P42338 with tags, fused parts or gaps limits assumed): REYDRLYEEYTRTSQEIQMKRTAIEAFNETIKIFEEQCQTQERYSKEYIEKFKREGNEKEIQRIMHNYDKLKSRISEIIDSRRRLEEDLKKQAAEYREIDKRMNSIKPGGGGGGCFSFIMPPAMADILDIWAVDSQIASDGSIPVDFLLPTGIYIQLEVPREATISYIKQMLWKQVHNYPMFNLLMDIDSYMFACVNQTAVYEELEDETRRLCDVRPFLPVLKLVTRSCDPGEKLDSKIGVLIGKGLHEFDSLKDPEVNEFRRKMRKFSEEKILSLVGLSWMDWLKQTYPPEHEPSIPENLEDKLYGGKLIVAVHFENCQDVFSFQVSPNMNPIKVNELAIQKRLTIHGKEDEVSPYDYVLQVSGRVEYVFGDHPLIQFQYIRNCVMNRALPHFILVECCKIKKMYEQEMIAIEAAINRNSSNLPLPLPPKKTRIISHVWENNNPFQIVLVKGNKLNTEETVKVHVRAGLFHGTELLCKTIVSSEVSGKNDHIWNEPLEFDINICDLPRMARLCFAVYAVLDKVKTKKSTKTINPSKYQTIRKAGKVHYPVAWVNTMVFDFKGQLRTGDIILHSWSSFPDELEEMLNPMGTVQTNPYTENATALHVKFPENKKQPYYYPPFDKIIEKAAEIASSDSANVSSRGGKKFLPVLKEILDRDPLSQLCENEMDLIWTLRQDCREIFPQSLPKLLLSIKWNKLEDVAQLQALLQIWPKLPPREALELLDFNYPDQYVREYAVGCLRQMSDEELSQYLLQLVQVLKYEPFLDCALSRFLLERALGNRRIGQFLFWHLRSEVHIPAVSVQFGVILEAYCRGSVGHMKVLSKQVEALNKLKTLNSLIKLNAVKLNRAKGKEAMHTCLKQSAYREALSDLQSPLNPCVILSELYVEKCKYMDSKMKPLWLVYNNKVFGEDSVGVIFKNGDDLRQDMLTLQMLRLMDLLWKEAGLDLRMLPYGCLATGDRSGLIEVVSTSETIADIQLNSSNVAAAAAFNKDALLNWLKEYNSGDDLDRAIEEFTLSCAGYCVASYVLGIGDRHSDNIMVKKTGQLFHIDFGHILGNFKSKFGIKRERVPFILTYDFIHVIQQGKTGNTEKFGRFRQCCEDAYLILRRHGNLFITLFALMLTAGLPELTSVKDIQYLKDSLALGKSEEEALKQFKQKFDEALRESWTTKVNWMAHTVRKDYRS
IC50 [1] [nM],IC50 [2] [nM],IC50 [3] [nM],IC50 [4] [nM],Compound
11,416,45,18,"CCNc1ncc(-c2ccc3ncc4c(c3c2)n(-c2ccc(N3CC[C@@H](O)C3)nc2C)c(=O)n4C)cn1 [Example 34.3, 8-(2-Ethylamino-pyrimidin-5-yl)-1-[6-((R)-3-hydroxy-pyrrolidin-1-yl)-2-methyl-pyridin-3-yl]-3-methyl-1,3-dihydro-imidazo[4,5-c]quinolin-2-one]"
8,339,49,24,"CCNc1ncc(-c2ccc3ncc4c(c3c2)n(-c2ccc(N3CC(O)C3)nc2C)c(=O)n4C)cn1 [Example 29.7, 8-(2-Ethylamino-pyrimidin-5-yl)-1-[6-(3-hydroxy-azetidin-1-yl)-2-methyl-pyridin-3-yl]-3-methyl-1,3-dihydro-imidazo[4,5-c]quinolin-2-one]"
